Experimental data: patent US20240101576A1, “HETEROCYCLIC INHIBITORS OF EGFR AND/OR HER2, FOR USE IN THE TREATMENT OF CANCER” (Scorpion Therapeutics, Inc., priority 2020, published 2024)

How the values were obtained:
Assay type in all cases: cell-based
[1] = biological target: T1, EGFR exon 20 FQEA Ins A763_V764 (Ba/F3 cells) (Homo sapiens, UniProt P00533, INS763FQEA); assay: Inhibitor activity on EGFR-dependent cell growth (CellTiter-Glo, 72 h), Ba/F3 EGFR exon 20 FQEA Ins; details: read-out: BaF3 FQEA IC50
T1 construct: expressed in transfected cells; host or cells: Ba/F3 (murine pro-B cells), retroviral transduction, puromycin selection, IL3-independent pool
Method in brief: (§1)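 72 h proliferation, Ba/F3 EGFR mutants (no IL3, puromycin-selected pools, EGFR confirmed by Western blot). Seeding of 400 L858R, 600 L858R/C797S and 800 exon 19del/FQEA cells per well. CellTiter-Glo used; controls were […] (high) and medium alone (low).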

[2] = biological target: T2, EGFR exon 20 ASV Ins V769_D770 (Ba/F3 cells) (Homo sapiens, UniProt P00533, INS769ASV); assay: Inhibitor activity on EGFR phosphorylation (pEGFR AlphaLISA, 2 h), Ba/F3 EGFR exon 20 ASV Ins; details: EGFR phosphorylation, AlphaLISA, 2 hours; read-out: ASV IC50 (pEGFR)
T2 construct: expressed in transfected cells; host or cells: Ba/F3 (murine pro-B cells), retroviral transduction, puromycin selection, IL3-independent pool
Method in brief: (§2)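 IL3-independent Ba/F3 cells transduced with mutant EGFR (50K/well) or CUTO14 cells (12.5K/well) were treated 2 h with 10-point, 3-fold compound dilutions. Phospho-EGFR in lysates was measured by AlphaLISA to derive IC50.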

[3] = biological target: T3, EGFR exon 20 SVD Ins D770_N771 (Ba/F3 cells) (Homo sapiens, UniProt P00533, INS770SVD); assay: Inhibitor activity on EGFR phosphorylation (pEGFR AlphaLISA, 2 h), Ba/F3 EGFR exon 20 SVD Ins
T3 construct: expressed in transfected cells; host or cells: Ba/F3 (murine pro-B cells), retroviral transduction, puromycin selection, IL3-independent pool
Description: Example B. Inhibitor Activity on EGFR phosphorylation (pEGFR)
EGFR mutant Ba/F3 cells were generated by transduction with retrovirus containing vectors expressing EGFR L858R, EGFR exon 19del, EGFR L858R/C797S, EGFR exon 20 NPG Ins D770_N771, EGFR exon 20 ASV Ins V769_D770, or EGFR exon 20 SVD Ins D770_N771 genes along with a puromycin selection marker. Transduced cells are selected with puromycin for 7 days and are then be transferred into culture media without Interleukin 3 (IL3). Surviving cells are confirmed to express EGFR by Western blot and maintained as a pool. CUTO14 cells were obtained from Dr. Robert C. Doebele at the University of Colorado. The IC50 date are included in Table 6 and Table 7.
1.1 Cells are harvested from flask into cell culture medium and the cell number counted.
1.2 Cells are diluted with culture medium to the desired density and 40 μL of cell suspension is added into each well of 384-well cell culture plate and the seeding density is 50K cells/well (Ba/F3) or 12.5K cells/well (CUTO14).
2 Compound Preparation and Treatment
2.1 Test compounds are dissolved to 10 mM in a DMSO stock solution. 45 μL of stock solution is transferred to a 384 polypropylene plate (pp-plate). Perform 3-fold, 10-point dilution via transferring 15 μL compound into 30 μL DMSO using a TECAN (EVO200) liquid handler.
2.2 Spin plates at room temperature at 1,000 RPM for 1 minute.
2.3 Transfer 5 nL of diluted compound from compound source plate into the cell plate.
2.4 After compound treatment for 2 hours, perform pEGFR detection by AlphaLISA for compound treatment plates as described in “Detection” section.
3 Detection by pEGFR AlphaLISA (Perkin-Elmer)
3.1 Plates are removed from incubators and equilibrated at room temperature for 10 minutes, and media was removed
3.2 10 μL of lysis buffer is added and plates shaken at 600 rpm for 1 hr.
3.3 Prepare acceptor mix just before use and dispense 5 μL of acceptor mix to all the wells. Shake 350 rpm for Ihr in the dark
3.4 Prepare donor mix under low light conditions prior to use. Dispense 5 μL of donor mix to all the wells. Mix well on the shaker, seal and wrap in aluminum foil and incubate 1.5 hrs at room temperature in the dark
3.5 Transfer 18.5 μL mixture to OptiPlate 384, and read using an Envision. The IC50 date were included in Table 6 and Table 7.

EGFR L858R (Ba/F3 cells) [4] = biological target: T4, EGFR L858R (Ba/F3 cells) (Homo sapiens, UniProt P00533, L858R); assay: Inhibitor activity on EGFR phosphorylation (pEGFR AlphaLISA, 2 h), Ba/F3 EGFR L858R
T4 construct: expressed in transfected cells; host or cells: Ba/F3 (murine pro-B cells), retroviral transduction, puromycin selection, IL3-independent pool
Method in brief: as §2

EGFR L858R (Ba/F3 cells) [5] = biological target: T4, EGFR L858R (Ba/F3 cells); assay: Inhibitor activity on EGFR-dependent cell growth (CellTiter-Glo, 72 h), Ba/F3 EGFR L858R; details: read-out: BaF3 L858R IC50
Method in brief: as §1

[6] = biological target: T5, EGFR exon 20 NPG Ins D770_N771 (Ba/F3 cells) (Homo sapiens, UniProt P00533, INS770NPG); assay: Inhibitor activity on EGFR-dependent cell growth (CellTiter-Glo, 72 h), Ba/F3 EGFR exon 20 NPG Ins; details: read-out: BaF3 NPG IC50
T5 construct: expressed in transfected cells; host or cells: Ba/F3 (murine pro-B cells), retroviral transduction, puromycin selection, IL3-independent pool
Method in brief: (§3)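 IC50s derive from a sigmoidal dose–response fit of CellTiter-Glo signal. The signal was normalised between […]-treated cells and cell-free medium. Ba/F3 mutant-EGFR cells, seeded at 400–800/well depending on the line, had 72 h of exposure to a 10-point, 3-fold compound series.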

[7] = biological target: T6, EGFR L858R/C797S (Ba/F3 cells) (Homo sapiens, UniProt P00533, C797S/L858R); assay: Inhibitor activity on EGFR-dependent cell growth (CellTiter-Glo, 72 h), Ba/F3 EGFR L858R/C797S; details: read-out: BaF3 L858R/C797S IC50
T6 construct: expressed in transfected cells; host or cells: Ba/F3 (murine pro-B cells), retroviral transduction, puromycin selection, IL3-independent pool
Method in brief: as §1

[8] = biological target: T5, EGFR exon 20 NPG Ins D770_N771 (Ba/F3 cells); assay: Inhibitor activity on EGFR phosphorylation (pEGFR AlphaLISA, 2 h), Ba/F3 EGFR exon 20 NPG Ins
Method in brief: as §2

EGFR WT (Ba/F3 cells) = biological target: T7, EGFR WT (Ba/F3 cells) (Homo sapiens, UniProt P00533); assay: Inhibitor activity on EGFR-dependent cell growth (CellTiter-Glo, 72 h), Ba/F3 EGFR WT; details: read-out: BaF3 WT IC50
T7 construct: expressed in transfected cells; host or cells: Ba/F3 (murine pro-B cells), retroviral transduction, puromycin selection, maintained with EGF
Method in brief: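 This growth assay used Ba/F3 cells that depend on wild-type EGFR and are kept in EGF without IL3. Compounds were made up as 10 mM DMSO stocks and diluted 3-fold over 10 points. 120 nL went onto 600 cells/well. After 72 hours, 40 μL CellTiter-Glo was added and luminescence read on EnVision after 30 min.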

[9] = biological target: T8, EGFR exon 19del (Ba/F3 cells) (Homo sapiens, UniProt P00533); assay: Inhibitor activity on EGFR phosphorylation (pEGFR AlphaLISA, 2 h), Ba/F3 EGFR exon 19del; details: read-out: Del19 IC50 (pEGFR)
Method in brief: as §2

EGFR (CUTO14 cells) = EGFR (CUTO14 cells) (Homo sapiens, UniProt P00533); assay: Inhibitor activity on EGFR phosphorylation (pEGFR AlphaLISA, 2 h), CUTO14 cells
Method in brief: as §2

[10] = biological target: T8, EGFR exon 19del (Ba/F3 cells); assay: Inhibitor activity on EGFR-dependent cell growth (CellTiter-Glo, 72 h), Ba/F3 EGFR exon 19del; details: Ba/F3 EGFR exon 19del cell growth, read-out: BaF3 Del19 IC50
Method in brief: as §1

[11] = biological target: T6, EGFR L858R/C797S (Ba/F3 cells); assay: Inhibitor activity on EGFR phosphorylation (pEGFR AlphaLISA, 2 h), Ba/F3 EGFR L858R/C797S
Method in brief: as §2

[12] = biological target: T3, EGFR exon 20 SVD Ins D770_N771 (Ba/F3 cells); assay: Inhibitor activity on EGFR-dependent cell growth (CellTiter-Glo, 72 h), Ba/F3 EGFR exon 20 SVD Ins; details: read-out: BaF3 SVD IC50
Method in brief: as §3

[13] = biological target: T2, EGFR exon 20 ASV Ins V769_D770 (Ba/F3 cells); assay: Inhibitor activity on EGFR-dependent cell growth (CellTiter-Glo, 72 h), Ba/F3 EGFR exon 20 ASV Ins; details: read-out: BaF3 ASV IC50
Method in brief: as §3

T3 sequence (P00533 with tags, fused parts or gaps INS770SVD): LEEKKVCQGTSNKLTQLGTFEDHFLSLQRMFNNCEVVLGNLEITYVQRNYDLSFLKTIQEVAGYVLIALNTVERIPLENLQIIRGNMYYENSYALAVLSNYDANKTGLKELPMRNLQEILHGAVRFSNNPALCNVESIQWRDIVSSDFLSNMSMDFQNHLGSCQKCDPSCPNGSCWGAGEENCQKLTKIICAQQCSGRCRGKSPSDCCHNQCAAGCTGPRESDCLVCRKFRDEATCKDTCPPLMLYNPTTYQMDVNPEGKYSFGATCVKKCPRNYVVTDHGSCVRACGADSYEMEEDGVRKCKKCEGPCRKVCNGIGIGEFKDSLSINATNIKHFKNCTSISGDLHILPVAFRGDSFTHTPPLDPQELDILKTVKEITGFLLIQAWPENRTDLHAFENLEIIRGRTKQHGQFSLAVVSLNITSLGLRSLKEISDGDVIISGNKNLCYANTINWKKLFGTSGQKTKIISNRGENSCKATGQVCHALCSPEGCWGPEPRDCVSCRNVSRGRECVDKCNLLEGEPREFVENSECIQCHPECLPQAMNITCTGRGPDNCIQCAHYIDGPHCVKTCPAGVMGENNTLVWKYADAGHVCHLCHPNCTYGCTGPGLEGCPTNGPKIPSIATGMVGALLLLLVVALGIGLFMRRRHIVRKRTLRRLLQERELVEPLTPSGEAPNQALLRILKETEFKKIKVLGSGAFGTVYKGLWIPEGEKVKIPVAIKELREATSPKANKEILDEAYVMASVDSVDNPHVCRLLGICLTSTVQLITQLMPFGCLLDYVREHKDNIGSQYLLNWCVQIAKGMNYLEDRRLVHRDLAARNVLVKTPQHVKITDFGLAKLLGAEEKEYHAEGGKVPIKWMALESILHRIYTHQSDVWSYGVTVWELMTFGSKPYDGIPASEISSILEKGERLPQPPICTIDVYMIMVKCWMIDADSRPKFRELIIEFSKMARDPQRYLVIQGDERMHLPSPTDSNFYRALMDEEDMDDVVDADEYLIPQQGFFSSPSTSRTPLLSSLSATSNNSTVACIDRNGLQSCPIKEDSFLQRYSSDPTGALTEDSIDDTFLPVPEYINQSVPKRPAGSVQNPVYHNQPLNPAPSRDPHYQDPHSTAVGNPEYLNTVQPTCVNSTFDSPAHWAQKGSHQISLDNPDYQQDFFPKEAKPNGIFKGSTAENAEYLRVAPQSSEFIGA
T7 sequence (P00533 25-1210): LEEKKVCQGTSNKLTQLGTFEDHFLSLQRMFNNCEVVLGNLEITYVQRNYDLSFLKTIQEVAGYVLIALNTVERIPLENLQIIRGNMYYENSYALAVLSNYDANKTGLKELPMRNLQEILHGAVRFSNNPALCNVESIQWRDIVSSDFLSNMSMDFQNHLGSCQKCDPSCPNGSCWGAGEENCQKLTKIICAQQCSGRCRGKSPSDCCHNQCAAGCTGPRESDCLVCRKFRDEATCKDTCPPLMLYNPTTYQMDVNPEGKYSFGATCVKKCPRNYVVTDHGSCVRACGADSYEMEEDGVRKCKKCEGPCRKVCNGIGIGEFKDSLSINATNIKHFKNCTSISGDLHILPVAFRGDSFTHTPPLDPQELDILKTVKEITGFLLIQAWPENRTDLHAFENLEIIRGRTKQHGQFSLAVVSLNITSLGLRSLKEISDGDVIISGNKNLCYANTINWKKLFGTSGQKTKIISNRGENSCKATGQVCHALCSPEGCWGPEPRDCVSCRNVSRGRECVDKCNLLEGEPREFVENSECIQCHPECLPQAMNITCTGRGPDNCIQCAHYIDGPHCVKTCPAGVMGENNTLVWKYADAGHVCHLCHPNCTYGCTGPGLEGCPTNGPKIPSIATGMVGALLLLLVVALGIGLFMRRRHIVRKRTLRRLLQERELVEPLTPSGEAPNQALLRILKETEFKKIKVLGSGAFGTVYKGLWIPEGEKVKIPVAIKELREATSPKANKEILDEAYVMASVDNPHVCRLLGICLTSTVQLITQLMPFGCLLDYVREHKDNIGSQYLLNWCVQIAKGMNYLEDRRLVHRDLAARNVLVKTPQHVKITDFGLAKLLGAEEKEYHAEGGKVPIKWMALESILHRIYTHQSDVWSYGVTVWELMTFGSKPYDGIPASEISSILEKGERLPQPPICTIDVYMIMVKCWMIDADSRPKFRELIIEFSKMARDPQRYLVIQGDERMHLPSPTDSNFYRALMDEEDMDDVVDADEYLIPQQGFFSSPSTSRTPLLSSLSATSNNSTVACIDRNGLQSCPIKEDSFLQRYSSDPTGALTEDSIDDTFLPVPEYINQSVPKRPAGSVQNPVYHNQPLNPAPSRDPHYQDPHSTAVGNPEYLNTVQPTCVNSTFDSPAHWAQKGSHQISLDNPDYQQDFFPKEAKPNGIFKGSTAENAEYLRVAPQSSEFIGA
T1 sequence (P00533 with tags, fused parts or gaps INS763FQEA): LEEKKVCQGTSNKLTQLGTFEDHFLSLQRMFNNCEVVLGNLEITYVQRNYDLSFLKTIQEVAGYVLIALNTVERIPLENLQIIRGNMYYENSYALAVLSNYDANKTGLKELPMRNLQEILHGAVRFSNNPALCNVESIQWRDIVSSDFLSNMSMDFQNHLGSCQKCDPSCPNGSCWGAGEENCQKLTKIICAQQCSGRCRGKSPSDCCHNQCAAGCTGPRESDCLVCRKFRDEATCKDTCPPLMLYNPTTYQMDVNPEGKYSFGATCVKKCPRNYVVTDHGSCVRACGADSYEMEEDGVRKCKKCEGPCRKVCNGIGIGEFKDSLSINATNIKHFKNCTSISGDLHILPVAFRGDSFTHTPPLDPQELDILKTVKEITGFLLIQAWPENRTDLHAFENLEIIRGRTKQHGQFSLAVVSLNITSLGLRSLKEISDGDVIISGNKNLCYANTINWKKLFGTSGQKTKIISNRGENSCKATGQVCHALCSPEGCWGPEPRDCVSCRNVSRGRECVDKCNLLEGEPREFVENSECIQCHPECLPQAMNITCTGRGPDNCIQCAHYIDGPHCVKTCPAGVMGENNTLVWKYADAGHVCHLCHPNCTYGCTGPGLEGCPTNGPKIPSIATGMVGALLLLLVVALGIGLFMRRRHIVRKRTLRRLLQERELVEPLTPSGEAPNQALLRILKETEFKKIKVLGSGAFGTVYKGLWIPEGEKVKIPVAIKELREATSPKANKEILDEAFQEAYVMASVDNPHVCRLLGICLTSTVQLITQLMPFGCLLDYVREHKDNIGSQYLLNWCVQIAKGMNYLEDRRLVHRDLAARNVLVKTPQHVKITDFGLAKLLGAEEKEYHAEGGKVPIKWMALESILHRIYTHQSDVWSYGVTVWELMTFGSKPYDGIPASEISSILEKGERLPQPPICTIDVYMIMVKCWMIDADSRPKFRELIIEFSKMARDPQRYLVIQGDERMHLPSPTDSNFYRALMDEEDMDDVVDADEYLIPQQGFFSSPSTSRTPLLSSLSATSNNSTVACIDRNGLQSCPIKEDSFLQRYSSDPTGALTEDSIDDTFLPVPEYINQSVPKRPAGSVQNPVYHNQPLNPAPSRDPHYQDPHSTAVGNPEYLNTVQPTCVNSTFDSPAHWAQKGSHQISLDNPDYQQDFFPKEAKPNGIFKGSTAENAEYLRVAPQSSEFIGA
T8 sequence (P00533 with tags, fused parts or gaps DEL746-750): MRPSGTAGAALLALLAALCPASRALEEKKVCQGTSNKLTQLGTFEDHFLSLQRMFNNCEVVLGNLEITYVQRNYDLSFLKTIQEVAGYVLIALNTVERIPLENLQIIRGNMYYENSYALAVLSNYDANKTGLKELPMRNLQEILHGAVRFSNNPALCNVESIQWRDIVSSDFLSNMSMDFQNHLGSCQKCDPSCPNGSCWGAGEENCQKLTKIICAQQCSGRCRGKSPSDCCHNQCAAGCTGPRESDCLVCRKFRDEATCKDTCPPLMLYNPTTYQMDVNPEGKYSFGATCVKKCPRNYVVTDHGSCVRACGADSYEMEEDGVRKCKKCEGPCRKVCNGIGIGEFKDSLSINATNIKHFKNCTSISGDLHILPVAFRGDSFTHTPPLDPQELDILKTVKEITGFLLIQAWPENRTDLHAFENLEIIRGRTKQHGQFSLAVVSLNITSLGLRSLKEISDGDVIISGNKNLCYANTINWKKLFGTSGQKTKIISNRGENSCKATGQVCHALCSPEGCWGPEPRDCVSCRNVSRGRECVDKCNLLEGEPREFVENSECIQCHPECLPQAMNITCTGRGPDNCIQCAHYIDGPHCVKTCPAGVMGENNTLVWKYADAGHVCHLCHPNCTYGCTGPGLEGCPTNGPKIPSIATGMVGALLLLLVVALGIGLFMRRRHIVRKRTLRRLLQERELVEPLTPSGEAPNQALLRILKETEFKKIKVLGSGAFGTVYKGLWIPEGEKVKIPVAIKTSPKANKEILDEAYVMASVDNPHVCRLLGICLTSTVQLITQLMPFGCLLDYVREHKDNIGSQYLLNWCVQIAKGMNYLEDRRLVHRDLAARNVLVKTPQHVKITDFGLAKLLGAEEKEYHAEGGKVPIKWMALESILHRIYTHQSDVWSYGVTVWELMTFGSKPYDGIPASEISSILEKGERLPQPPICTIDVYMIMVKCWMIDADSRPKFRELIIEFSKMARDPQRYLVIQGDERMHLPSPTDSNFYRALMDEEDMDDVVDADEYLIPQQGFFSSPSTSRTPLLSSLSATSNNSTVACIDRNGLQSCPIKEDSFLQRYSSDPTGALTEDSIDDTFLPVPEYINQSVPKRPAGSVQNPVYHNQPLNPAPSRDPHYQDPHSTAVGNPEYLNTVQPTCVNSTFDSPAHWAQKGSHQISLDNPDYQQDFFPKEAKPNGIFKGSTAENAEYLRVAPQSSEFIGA

Compound	IC50 [1] [nM]	IC50 [2] [nM]	IC50 [3] [nM]	IC50 (EGFR L858R (Ba/F3 cells) [4]) [nM]	IC50 (EGFR L858R (Ba/F3 cells) [5]) [nM]	IC50 [6] [nM]	IC50 [7] [nM]	IC50 [8] [nM]	IC50 (EGFR WT (Ba/F3 cells)) [nM]	IC50 [9] [nM]	IC50 (EGFR (CUTO14 cells)) [nM]	IC50 [10] [nM]	IC50 [11] [nM]	IC50 [12] [nM]	IC50 [13] [nM]
COc1c(Cl)cccc1Nc1c(-c2ccnc3ccoc23)[nH]c2c1C(=O)NCC2 [compound 750, 3-[(3-chloro-2-methoxyphenyl)amino]-2-[furo[3,2-b]pyridin-7-yl]-1H,5H,6H,7H-pyrrolo[3,2-c]pyridin-4-one]	< 100	< 100	< 100	< 100	< 100	< 100	< 100	< 100	100 to 1000	< 100	< 100	< 100	< 100		
COc1c(Cl)cccc1Nc1c(-c2ccnc(N)n2)[nH]c2c1C(=O)NC[C@H]2C[C@@H]1COCCO1 [Compound 567, (7R)-2-(2-aminopyrimidin-4-yl)-3-[(3-chloro-2-methoxyphenyl)amino]-7-[(2R)-1,4-dioxan-2-ylmethyl]-1H,5H,6H,7H-pyrrolo[3,2-c]pyridin-4-one]	< 100	< 100	< 100		< 100	< 100		< 100	100 to 1000		< 100	< 100		< 100	< 100
COc1c(Cl)cccc1Nc1c(-c2ccncc2F)[nH]c2c1C(=O)NC[C@@H]2C[C@@H]1COCCO1 [Compound 482, (S)-7-(((R)-1,4-dioxan-2-yl)methyl)-3-((3-chloro-2-methoxyphenyl)amino)-2-(3-fluoropyridin-4-yl)-1,5,6,7-tetrahydro-4H-pyrrolo[3,2-c]pyridin-4-one]	< 100	< 100	< 100	< 100	< 100	< 100	< 100	< 100	< 100	< 100	< 100	< 100	< 100		
COc1c(Cl)cccc1Nc1c(-c2ccnc(Nc3ccn(CC(F)F)n3)n2)[nH]c2c1C(=O)NCC2 [compound 515, 3-[(3-chloro-2-methoxyphenyl)amino]-2-(2-{[1-(2,2-difluoroethyl)pyrazol-3-yl]amino}pyrimidin-4-yl)-1H,5H,6H,7H-pyrrolo[3,2-c]pyridin-4-one]	< 100	< 100	< 100		< 100	< 100		< 100	< 100		< 100	< 100		< 100	< 100
COc1ncc2nccc(-c3[nH]c4c(c3Nc3cccc(Cl)c3OC)C(=O)NCC4)c2n1 [compound 408]	< 100	< 100	< 100			< 100		< 100	< 100		< 100			< 100	< 100
COCC[C@@H]1CNC(=O)c2c1[nH]c(-c1ccnc(N)n1)c2Nc1cccc(Cl)c1OC [Compound 726, (7R)-2-(2-aminopyrimidin-4-yl)-3-[(3-chloro-2-methoxyphenyl)amino]-7-(2-methoxyethyl)-1H,5H,6H,7H-pyrrolo[3,2-c]pyridin-4 one]	< 100	< 100	< 100			< 100		< 100	< 100		< 100			< 100	< 100
COc1c(Cl)cccc1Nc1c(-c2ccnc(C)n2)[nH]c2c1C(=O)NC[C@H]2C[C@@H]1COCCO1 (single isomer, unassigned) [Compound 570]	< 100	< 100	< 100	< 100	< 100	< 100	< 100	< 100	100 to 1000	< 100	< 100	< 100	< 100		
COCC[C@H]1CNC(=O)c2c1[nH]c(-c1ccncc1F)c2Nc1cccc(Cl)c1OC [Compound 747]	< 100	< 100	< 100	< 100	< 100	< 100	< 100	< 100	< 100	< 100	< 100	< 100	< 100		
COc1c(Cl)cccc1Nc1c(-c2ccncc2F)[nH]c2c1C(=O)NC[C@@H]2C[C@H]1COCCO1 [Compound 481, (7S)-3-[(3-chloro-2-methoxyphenyl)amino]-7-[(2S)-1,4-dioxan-2-ylmethyl]-2-(3-fluoropyridin-4-yl)-1H,5H,6H,7H-pyrrolo[3,2-c]pyridin-4-one]	< 100	< 100	< 100	< 100	< 100	< 100	< 100	< 100	100 to 1000	< 100	< 100	< 100	< 100		
